This assay has as its target PIK3CA (human) (UniProt P42336). The assay can be described thus: Assessment of PIK3CA Kinase Activity.
Chain of PIK3CA (human) (P42336 whole entry, looked up): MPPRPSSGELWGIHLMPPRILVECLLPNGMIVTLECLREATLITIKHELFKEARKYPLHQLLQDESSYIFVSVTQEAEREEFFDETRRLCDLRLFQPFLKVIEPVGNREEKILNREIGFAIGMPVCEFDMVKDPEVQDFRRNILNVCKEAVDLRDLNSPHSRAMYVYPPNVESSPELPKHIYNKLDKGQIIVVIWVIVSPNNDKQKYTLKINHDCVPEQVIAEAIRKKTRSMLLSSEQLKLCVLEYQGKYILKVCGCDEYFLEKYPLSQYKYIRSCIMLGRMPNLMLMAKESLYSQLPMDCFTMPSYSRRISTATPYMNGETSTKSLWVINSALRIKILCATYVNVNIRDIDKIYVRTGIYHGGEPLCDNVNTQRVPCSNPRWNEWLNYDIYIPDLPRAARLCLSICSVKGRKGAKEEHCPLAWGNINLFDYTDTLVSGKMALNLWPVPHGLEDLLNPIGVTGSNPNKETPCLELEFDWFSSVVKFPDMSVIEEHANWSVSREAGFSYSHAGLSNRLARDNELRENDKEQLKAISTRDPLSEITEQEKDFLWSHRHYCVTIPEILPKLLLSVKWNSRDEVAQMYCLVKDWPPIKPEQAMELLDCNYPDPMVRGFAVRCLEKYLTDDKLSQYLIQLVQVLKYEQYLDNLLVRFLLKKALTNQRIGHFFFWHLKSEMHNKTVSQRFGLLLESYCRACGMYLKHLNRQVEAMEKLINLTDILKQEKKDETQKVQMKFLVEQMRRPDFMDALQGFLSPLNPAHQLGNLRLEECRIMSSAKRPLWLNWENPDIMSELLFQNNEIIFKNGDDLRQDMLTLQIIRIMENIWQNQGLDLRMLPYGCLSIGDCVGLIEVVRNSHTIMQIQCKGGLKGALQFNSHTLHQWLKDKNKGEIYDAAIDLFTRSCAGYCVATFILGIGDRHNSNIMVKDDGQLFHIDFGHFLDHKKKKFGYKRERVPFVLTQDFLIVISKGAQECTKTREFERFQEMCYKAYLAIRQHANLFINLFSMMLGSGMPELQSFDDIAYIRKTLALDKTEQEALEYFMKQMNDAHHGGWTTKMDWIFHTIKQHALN
On to `CNc1ccc(-c2nc(N3CCOCC3)c3sc(C(C)(C)Nc4ncc(C(=O)NO)cn4)cc3n2)cn1`, for which the IC50 (usually the concentration that gives 50% inhibition) was < 100 nM.

For `CN(Cc1cc2nc(-c3ccc(N)c(CO)c3)nc(N3CCOCC3)c2s1)c1ncc(C(=O)NO)cn1`, the half-maximal inhibitory concentration (IC50) was < 100 nM.

Consider `CN1CCN(c2nc(-c3cccc4[nH]ncc34)nc3cc(CN(C)c4ncc(C(=O)NO)cn4)sc23)CC1`, for which the IC50 is > 10000 nM.

Turning to `CN(Cc1cc2nc(-c3ccc4c(c3)CC(=O)N4)nc(N3CCOCC3)c2s1)c1ncc(C(=O)NO)cn1`, the IC50 was > 10000 nM.

As to `CN(Cc1cc2nc(-c3cc(O)ccc3F)nc(N3CCOCC3)c2s1)c1ncc(C(=O)NO)cn1`, the IC50 was < 100 nM.

`CC(=O)c1cccc(-c2nc(N3CCOCC3)c3sc(CN(C)c4ncc(C(=O)NO)cn4)cc3n2)c1` registered an IC50 of 100 to 1000 nM.

With `CN(Cc1cc2nc(-c3cnc(OCc4ccccc4)nc3)nc(N3CCOCC3)c2s1)c1ncc(C(=O)NO)cn1`, the IC50 lay in the range of 100 to 1000 nM.

In turn, `CN(Cc1cc2nc(-c3ccc(O)nc3)nc(N3CCOCC3)c2s1)c1ncc(C(=O)NO)cn1` returned an IC50 of 100 to 1000 nM.

Take `CN(Cc1cc2nc(-c3cccc(C(C)(C)O)c3)nc(N3CCOCC3)c2s1)c1ncc(C(=O)NO)cn1`: the IC50 was > 10000 nM.

With `COc1ncc(-c2nc(N3CCOCC3)c3sc(NS(=O)(=O)c4cccc(C=CC(=O)NO)c4)cc3n2)cn1`, the IC50 was < 100 nM.

With `COc1ccc(-c2nc(N3CCOCC3)c3sc(CN(CCO)c4ncc(C(=O)NO)cn4)cc3n2)cn1`, the IC50 was < 100 nM.

Consider `CC(C)OC(=O)Nc1ccc(-c2nc(N3CCOCC3)c3sc(CN(C)c4ncc(C(=O)NO)cn4)cc3n2)cc1`, for which the IC50 was > 10000 nM.

As to `Nc1ncc(-c2nc(N3CCOCC3)c3sc(NS(=O)(=O)c4cccc(/C=C/C(=O)NO)c4)cc3n2)cn1`, the IC50 was < 100 nM.

Regarding `COc1ccc(Nc2nc(-c3cccc4[nH]ncc34)nc3cc(CN(C)c4ncc(C(=O)NO)cn4)sc23)cc1`, the IC50 was > 10000 nM.

`Nc1ccc(-c2nc(N3CCOCC3)c3sc(S(=O)(=O)NCC4CCN(c5ncc(C(=O)NO)cn5)CC4)cc3n2)cc1` gave an IC50 of 100 to 1000 nM.

As to `CNc1ccc(-c2nc(N3CCOCC3)c3sc(C(=O)NCC4CCN(c5ncc(C(=O)NO)cn5)CC4)cc3n2)cn1`, the IC50 was < 100 nM.

Regarding `CN(Cc1cc2nc(-c3cccc(C(=O)O)c3)nc(N3CCOCC3)c2s1)c1ncc(C(=O)NO)cn1`, the IC50 was 100 to 1000 nM.

Compound `CC(=O)c1cc(-c2nc(N3CCOCC3)c3sc(CN(C)c4ncc(C(=O)NO)cn4)cc3n2)ccc1N` yielded an IC50 of 100 to 1000 nM.

`CN(C)c1ccc(-c2nc(N3CCOCC3)c3sc(CN(C)c4ncc(C(=O)NO)cn4)cc3n2)cc1`: the half-maximal inhibitory concentration (IC50) is > 10000 nM.

In turn, `CC(=NO)c1ccc(F)c(-c2nc(N3CCOCC3)c3sc(CN(C)c4ncc(C(=O)NO)cn4)cc3n2)c1` yielded an IC50 of 100 to 1000 nM.

`CN(Cc1cc2nc(-c3cc(F)c(N)c(F)c3)nc(N3CCOCC3)c2s1)c1ncc(C(=O)NO)cn1` showed a 50% inhibitory concentration (IC50) of 100 to 1000 nM.

In turn, `CCCc1nc2cc(C=CC(=O)NO)ccc2n1CCN(C)Cc1cc2nc(-c3ccc(N)cc3)nc(N3CCOCC3)c2s1` gave an IC50 of 100 to 1000 nM.

Take `CN(Cc1cc2nc(-c3ccc4c(c3)NC(=O)CO4)nc(N3CCOCC3)c2s1)c1ncc(C(=O)NO)cn1`: the IC50 was > 10000 nM.

`CNc1ccc(-c2nc(N3CCOCC3)c3sc(CNCc4nc5cc(C=CC(=O)NO)ccc5n4C)cc3n2)cn1`: the IC50 is < 100 nM.

Regarding `CS(=O)(=O)N1CCN(Cc2cc3nc(-c4cccc5[nH]ncc45)nc(NCCCCCC(=O)NO)c3s2)CC1`, the IC50 was > 10000 nM.

For `CN(Cc1cc2nc(-c3ccc(S(C)(=O)=O)cc3)nc(N3CCOCC3)c2s1)c1ncc(C(=O)NO)cn1`, the IC50 was > 10000 nM.

In the case of `CCN(CC)c1nc(-c2cccc3[nH]ncc23)nc2cc(CN(C)c3ncc(C(=O)NO)cn3)sc12`, the IC50 is > 10000 nM.

As for `Nc1ccc(-c2nc(N3CCOCC3)c3sc(CN(CCO)c4ncc(C(=O)NO)cn4)cc3n2)cc1`, the IC50 is < 100 nM.

Consider `Nc1ncc(-c2nc(N3CCOCC3)c3sc(NCCCCC(=O)NO)cc3n2)cn1`, for which the IC50 was < 100 nM.

As for `CCOc1ccc(-c2nc(N3CCOCC3)c3sc(CN(C)c4ncc(C(=O)NO)cn4)cc3n2)cn1`, the IC50 was < 100 nM.

Regarding `COCCNc1nc(-c2cccc3[nH]ncc23)nc2cc(CN(C)c3ncc(C(=O)NO)cn3)sc12`, the IC50 is > 10000 nM.

For `Nc1ccc(-c2nc(N3CCOCC3)c3sc(S(=O)(=O)Nc4ncc(C(=O)NO)cn4)cc3n2)cc1`, the IC50 was < 100 nM.

`CS(=O)(=O)N1CCN(Cc2cc3nc(-c4cccc5c4cnn5CCCCC(=O)NO)nc(N4CCOCC4)c3s2)CC1`: the IC50 was > 10000 nM.

As for `CS(=O)(=O)N1CCN(Cc2cc3nc(-c4cccc5nn(CCCCCCC(=O)NO)cc45)nc(N4CCOCC4)c3s2)CC1`, the IC50 is > 10000 nM.

Consider `CN(Cc1cc2nc(-c3ccc4[nH]c(=O)[nH]c4c3)nc(N3CCOCC3)c2s1)c1ncc(C(=O)NO)cn1`, for which the IC50 is > 10000 nM.

For `CN(Cc1cc2nc(-c3ccc(N)c(O)c3)nc(N3CCOCC3)c2s1)c1ncc(C(=O)NO)cn1`, the IC50 is < 100 nM.

For the compound `COc1ncc(-c2nc(N3CCOCC3)c3sc(NS(=O)(=O)c4ccc(C=CC(=O)NO)cc4)cc3n2)cn1`, the IC50 is < 100 nM.

Turning to `Nc1ccc(-c2nc(N3CCOCC3)c3sc(CNCc4ccc(C(=O)NO)cc4)cc3n2)cc1`, the IC50 is > 10000 nM.

In the case of `CNc1ncc(-c2nc(N3CCOCC3)c3sc(NCCCCC(=O)NO)cc3n2)cn1`, the concentration for half-maximal inhibition (IC50) was < 100 nM.

As to `CS(=O)(=O)N1CCN(Cc2cc3nc(-c4cccc5[nH]ncc45)nc(N4CCN(CCCCCCC(=O)NO)CC4)c3s2)CC1`, the IC50 was > 10000 nM.

Consider `CS(=O)(=O)N1CCN(Cc2cc3nc(-c4cccc5c4cnn5CCCCCCC(=O)NO)nc(N4CCOCC4)c3s2)CC1`, for which the IC50 was > 10000 nM.

With `C[C@@H](O)c1cccc(-c2nc(N3CCOCC3)c3sc(CN(C)c4ncc(C(=O)NO)cn4)cc3n2)c1`, the IC50 is 100 to 1000 nM.

On to `Cc1ncc(-c2nc(N3CCOCC3)c3sc(CN(CCO)c4ncc(C(=O)NO)cn4)cc3n2)s1`, for which the IC50 is 100 to 1000 nM.

For `CNc1ccc(-c2nc(N3CCOCC3)c3sc(CN(CCO)c4ncc(C(=O)NO)cn4)cc3n2)cn1`, the IC50 was < 100 nM.

For `Cc1ncc(-c2nc(N3CCOCC3)c3sc(CN(C)c4ncc(C(=O)NO)cn4)cc3n2)s1`, the IC50 was 100 to 1000 nM.

As to `CN(Cc1cc2nc(-c3ccccc3)nc(N3CCOCC3)c2s1)c1ncc(C(=O)NO)cn1`, the IC50 was > 10000 nM.

Consider `CNCCOc1ccc(-c2nc(N3CCOCC3)c3sc(CN(C)c4ncc(C(=O)NO)cn4)cc3n2)cn1`, for which the IC50 was > 10000 nM.

On to `Nc1ccc(-c2nc(N3CCOCC3)c3sc(Nc4ncc(C(=O)NO)cn4)cc3n2)cc1`, for which the IC50 was < 100 nM.

Take `CN(Cc1cc2nc(-c3ccc(N)c(F)c3)nc(N3CCOCC3)c2s1)c1ncc(C(=O)NO)cn1`: the IC50 is < 100 nM.

Turning to `CN(Cc1cc2nc(-c3cccc(OCCO)c3)nc(N3CCOCC3)c2s1)c1ncc(C(=O)NO)cn1`, the IC50 is < 100 nM.

In the case of `Nc1ccc(-c2nc(N3CCOCC3)c3sc(CN(CCO)c4ncc(C(=O)NO)cn4)cc3n2)cn1`, the 50% inhibitory concentration (IC50) was < 100 nM.

Consider `CNc1ccc(-c2nc(N3CCOCC3)c3sc(NS(=O)(=O)c4cccc(C=CC(=O)NO)c4)cc3n2)cn1`, for which the IC50 was < 100 nM.

Take `CNc1ccc(-c2nc(N3CCOCC3)c3sc(CN(C)c4ncc(C(=O)NO)cn4)cc3n2)cc1`: the IC50 was > 10000 nM.

In the case of `O=C(C=Cc1cccc(S(=O)(=O)Nc2cc3nc(-c4cccc5[nH]ncc45)nc(N4CCOCC4)c3s2)c1)NO`, the IC50 was < 100 nM.

Take `CS(=O)(=O)N1CCN(Cc2cc3nc(-c4cccc5nn(CCCCCC(=O)NO)cc45)nc(N4CCOCC4)c3s2)CC1`: the IC50 is > 10000 nM.

`CS(=O)(=O)N1CCN(Cc2cc3nc(-c4ccc(OCCCCCCC(=O)NO)cc4)nc(N4CCOCC4)c3s2)CC1` displayed an IC50 of 100 to 1000 nM.

Take `CNc1ccc(-c2nc(N3CCOCC3)c3sc(C(C)N(C)c4ncc(C(=O)NO)cn4)cc3n2)cn1` (stereo unspecified): the IC50 was < 100 nM.

In the case of `CN(Cc1cc2nc(-c3cccc4c3CCN4)nc(N3CCOCC3)c2s1)c1ncc(C(=O)NO)cn1`, the IC50 was > 10000 nM.

The compound `CN(Cc1cc2nc(-c3cccc4[nH]c(=O)[nH]c34)nc(N3CCOCC3)c2s1)c1ncc(C(=O)NO)cn1` displayed an IC50 of 100 to 1000 nM.

Take `CN(Cc1cc2nc(-c3cnn(C)c3)nc(N3CCOCC3)c2s1)c1ncc(C(=O)NO)cn1`: the IC50 lay in the range of 100 to 1000 nM.

On to `CN(Cc1cc2nc(-c3cccc(S(=O)(=O)CCO)c3)nc(N3CCOCC3)c2s1)c1ncc(C(=O)NO)cn1`, for which the IC50 was > 10000 nM.

Compound `CS(=O)(=O)N1CCN(Cc2cc3nc(-c4ccc(OCCCCCC(=O)NO)cc4)nc(N4CCOCC4)c3s2)CC1` showed an IC50 of 100 to 1000 nM.

On to `COc1ncc(-c2nc(N3CCOCC3)c3sc(C(C)(C)N(C)c4ncc(C(=O)NO)cn4)cc3n2)cn1`, for which the IC50 lay in the range of 100 to 1000 nM.

As to `CNc1ccc(-c2nc(N3CCOCC3)c3sc(S(=O)(=O)NCC4CCN(c5ncc(C(=O)NO)cn5)CC4)cc3n2)cn1`, the IC50 is < 100 nM.

Turning to `CC(=O)NCc1ccc(-c2nc(N3CCOCC3)c3sc(CN(C)c4ncc(C(=O)NO)cn4)cc3n2)cc1`, the IC50 is > 10000 nM.

Regarding `CN(Cc1cc2nc(-c3ccc(N)cc3Cl)nc(N3CCOCC3)c2s1)c1ncc(C(=O)NO)cn1`, the IC50 was < 100 nM.

`CC(O)c1ccc(F)c(-c2nc(N3CCOCC3)c3sc(CN(C)c4ncc(C(=O)NO)cn4)cc3n2)c1` (stereo unspecified) came in with an IC50 of 100 to 1000 nM.

As for `O=C(CCCCNc1cc2nc(-c3cc(O)ccc3F)nc(N3CCOCC3)c2s1)NO`, the IC50 is < 100 nM.

Consider `CN(Cc1cc2nc(-c3cccc4[nH]ncc34)nc(N3CCN(CCO)CC3)c2s1)c1ncc(C(=O)NO)cn1`, for which the IC50 was > 10000 nM.

Turning to `CCNc1ccc(-c2nc(N3CCOCC3)c3sc(CN(C)c4ncc(C(=O)NO)cn4)cc3n2)cc1`, the concentration for half-maximal inhibition (IC50) was > 10000 nM.

Turning to `CN(Cc1cc2nc(-c3ccc(C#N)cc3)nc(N3CCOCC3)c2s1)c1ncc(C(=O)NO)cn1`, the IC50 was > 10000 nM.

Consider `Nc1ccc(-c2nc(N3CCOCC3)c3sc(C(=O)NCC4CCN(c5ncc(C(=O)NO)cn5)CC4)cc3n2)cc1`, for which the concentration for half-maximal inhibition (IC50) is 100 to 1000 nM.

In the case of `CN(Cc1cc2nc(-c3ccc([N+](=O)[O-])c(O)c3)nc(N3CCOCC3)c2s1)c1ncc(C(=O)NO)cn1`, the IC50 is < 100 nM.

For `CN(c1ncc(C(=O)NO)cn1)c1cc2nc(-c3ccc(N)cc3)nc(N3CCOCC3)c2s1`, the IC50 was < 100 nM.

`CS(=O)(=O)N1CCN(Cc2cc3nc(-c4cccc5[nH]ncc45)nc(NCCCCCCC(=O)NO)c3s2)CC1`: the IC50 was > 10000 nM.

In the case of `Cn1c(CNCc2cc3nc(-c4ccc(N)cc4)nc(N4CCOCC4)c3s2)nc2cc(C=CC(=O)NO)ccc21`, the IC50 is 100 to 1000 nM.

The values are drawn from the Kinase Knowledgebase extract (Sharma et al. 2016).
